Source: patent publication US11384083B2, “Substituted spiro[cyclopropane-1,5′-pyrrolo[2,3-d]pyrimidin]-6′(7′h)-ones as CDK2 inhibitors” (Incyte Corporation, priority 2019, dated 2022)

Target: CDK2/Cyclin E1 (Homo sapiens (Human), UniProt P24941)
Experiment: CDK2/Cyclin E1 HTRF enzyme activity assay
Assay type: biochemical
Details: 1 mM ATP
Description: Example A. CDK2/Cyclin E1 HTRF Enzyme Activity Assay
CDK2/Cyclin E1 enzyme activity assays utilized full-length human CDK2 co-expressed as N-terminal GST-tagged protein with FLAG-Cyclin E1 in a baculovirus expression system (Carna Product Number 04-165). Assays were conducted in white 384-well polystyrene plates in a final reaction volume of 8 μL. CDK2/Cyclin E1 (0.25 nM) was incubated with compounds (40 nL serially diluted in DMSO) in the presence of ATP (50 μM or 1 mM) and 50 nM ULight™-labeled eIF4E-binding protein 1 (THR37/46) peptide (PerkinElmer) in assay buffer (containing 50 mM HEPES pH 7.5, 1 mM EGTA, 10 mM MgCl2, 2 mM DTT, 0.05 mg/mL BSA, and 0.01% Tween 20) for 60 minutes at room temperature. The reactions were stopped by the addition of EDTA and Europium-labeled anti-phospho-4E-BP1 antibody (PerkinElmer), for a final concentration of 15 mM and 1.5 nM, respectively. HTRF signals were read after 1 hour at room temperature on a PHERAstar FS plate reader (BMG Labtech). Data were analyzed with IDBS XLFit and GraphPad Prism 5.0 software using a three or four parameter dose response curve to determine IC50 for each compound.

SMILES	IC50
O=C1N(c2cc3c(cc2Cl)CNCC3)c2nc(NC3CCN(S(=O)(=O)c4ncc[nH]4)CC3)ncc2C12CC2 [Example 18, 2′-((1-((1H-imidazol-2-yl)sulfonyl)piperidin-4-yl)amino)-7′-(7-chloro-1,2,3,4-tetrahydroisoquinolin-6-yl)spiro[cyclopropane-1,5′-pyrrolo[2,3-d]pyrimidin]-6′(7′H)-one]	≤ 50 nM
C[C@@H](C1CC1)N1C(=O)C2(CC2)c2cnc(NC3CCN(S(=O)(=O)c4ccc(=O)[nH]c4)CC3)nc21 [Example 15, (S)-7′-(1-cyclopropylethyl)-2′-((1-((6-oxo-1,6-dihydropyridin-3-yl)sulfonyl)piperidin-4-yl)amino)spiro[cyclopropane-1,5′-pyrrolo[2,3-d]pyrimidin]-6′(7′H)-one]	≤ 50 nM
CCN1CC(n2cc(S(=O)(=O)N3CCC(Nc4ncc5c(n4)N([C@@H](C)C4CC4)C(=O)C54CC4)CC3)cn2)C1 [Example 16, (S)-7′-(1-cyclopropylethyl)-2′-((1-((1-(1-ethylazetidin-3-yl)-1H-pyrazol-4-yl)sulfonyl)piperidin-4-yl)amino)spiro[cyclopropane-1,5′-pyrrolo[2,3-d]pyrimidin]-6′(7′H)-one]	≤ 50 nM
C[C@@H](C1CC1)N1C(=O)C2(CC2)c2cnc(NC3CCN(S(=O)(=O)c4ncc[nH]4)CC3)nc21 [Example 14, (S)-2′-((1-((1H-imidazol-2-yl)sulfonyl)piperidin-4-yl)amino)-7′-(1-cyclopropylethyl)spiro[cyclopropane-1,5′-pyrrolo[2,3-d]pyrimidin]-6′(7′H)-one]	≤ 50 nM
CCC(C(F)F)N1C(=O)C2(CC2)c2cnc(NC3CCN(S(C)(=O)=O)CC3)nc21 (racemic) [Example 10, 7′-(1,1-difluorobutan-2-yl)-2′-((1-(methylsulfonyl)piperidin-4-yl)amino)spiro[cyclopropane-1,5′-pyrrolo[2,3-d]pyrimidin]-6′(7′H)-one]	≤ 50 nM
CCn1cnc(S(=O)(=O)N2CCC(Nc3ncc4c(n3)N(c3cc(F)ccc3Cl)C(=O)C43CC3)CC2)c1 [Example 19, 7′-(2-chloro-5-fluorophenyl)-2′-((1-((1-ethyl-1H-imidazol-4-yl)sulfonyl)piperidin-4-yl)amino)spiro[cyclopropane-1,5′-pyrrolo[2,3-d]pyrimidin]-6′(7′H)-one]	≤ 50 nM

The remaining lines, values ahead:

IC50	SMILES
≤ 50 nM	O=C1N(C2CCCC2)c2nc(NC3CCN(S(=O)(=O)C4CC4)CC3)ncc2C12CC2 [Example 3, 7′-Cyclopentyl-2′-((1-(cyclopropylsulfonyl)piperidin-4-yl)amino)spiro[cyclopropane-1,5′-pyrrolo[2,3-d]pyrimidin]-6′(7′H)-one]
≤ 50 nM	O=C1N(C2CCCC2)c2nc(NC3CCN(S(=O)(=O)c4cccnc4)CC3)ncc2C12CC2 [Example 5, 7′-Cyclopentyl-2′-((1-(pyridin-3-ylsulfonyl)piperidin-4-yl)amino)spiro[cyclopropane-1,5′-pyrrolo[2,3-d]pyrimidin]-6′(7′H)-one]
≤ 50 nM	CC1CCCC1N1C(=O)C2(CC2)c2cnc(NC3CCN(S(C)(=O)=O)CC3)nc21 (stereo not shown) [Example 8, 7′-(2-Methylcyclopentyl)-2′-((1-(methylsulfonyl)piperidin-4-yl)amino)spiro[cyclopropane-1,5′-pyrrolo[2,3-d]pyrimidin]-6′(7′H)-one]
≤ 50 nM	O=C1N([C@@H]2CCC[C@@H](O)C2)c2nc(NC3CCN(S(=O)(=O)c4cccc(N5CCC5)n4)CC3)ncc2C12CC2 [Example 13, 2′-((1-((6-(azetidin-1-yl)pyridin-2-yl)sulfonyl)piperidin-4-yl)amino)-7′-((1R,3R)-3-hydroxycyclohexyl)spiro[cyclopropane-1,5′-pyrrolo[2,3-d]pyrimidin]-6′(7′H)-one]
≤ 50 nM	Cn1cc(S(=O)(=O)N2CCC(Nc3ncc4c(n3)N([C@@H]3CCC[C@@H](O)C3)C(=O)C43CC3)CC2)cn1 [Example 12, 7′-((1R,3R)-3-hydroxycyclohexyl)-2′-((1-((1-methyl-1H-pyrazol-4-yl)sulfonyl)piperidin-4-yl)amino)spiro[cyclopropane-1,5′-pyrrolo[2,3-d]pyrimidin]-6′(7′H)-one]
≤ 50 nM	Cn1cc(S(=O)(=O)N2CCC(Nc3ncc4c(n3)N(C3CCCC3)C(=O)C43CC3)CC2)cn1 [Example 7, 7′-Cyclopentyl-2′-((1-((1-methyl-1H-pyrazol-4-yl)sulfonyl)piperidin-4-yl)amino)spiro[cyclopropane-1,5′-pyrrolo[2,3-d]pyrimidin]-6′(7′H)-one]
≤ 50 nM	C[C@@]1(O)CCC[C@H]1N1C(=O)C2(CC2)c2cnc(NC3CCN(S(=O)(=O)c4ncc[nH]4)CC3)nc21 (relative stereo) [Example 17, 2′-((1-((1H-imidazol-2-yl)sulfonyl)piperidin-4-yl)amino)-7′-((trans)-2-hydroxy-2-methylcyclopentyl)spiro[cyclopropane-1,5′-pyrrolo[2,3-d]pyrimidin]-6′(7′H)-one]
